Results on five compounds are retold here after patent publication EP2047849A1 (KTB Tumorforschungsgesellschaft mbH, priority 2007, dated 2009).

Substitutions are numbered along the chain they refer to.

Holding throughout (test): 33PanQinase Activity Assay (in vitro protein kinase activity assay)
Holding throughout (format): biochemical
What all share (details): recombinant purified kinase, 1 µM [γ-33P]-ATP

For test [1], the target named is T1, PDGFR-beta (Homo sapiens, UniProt P09619).
T1 construct: made in house; host or cells: Sf9 insect cells (baculovirus)
The method, then: (§1) Inhibition of protein kinases by compounds was measured in proprietary protein kinase activity assay (^33PanQinase® Activity Assay) using recombinant purified protein kinases. All protein kinases were expressed in Sf9 insect cells as recombinant GST-fusion proteins or His-tagged proteins by means of the baculovirus expression system. All kinases were produced from human cDNAs. Kinases were purified by affinity chromatography using either GSH-agarose (Sigma) or Ni-NTH-agarose (Qiagen). The purity of the protein kinases was examined by SDS-PAGE/Coomassie staining. Activity was measured by determination of the incorporation of radio labelled phosphate into a substrate. The reaction cocktails for all enzymes contained 60 mM HEPES-NaOH, 10 mM Tris/HCl, pH 7.5, 20 mM NaCl, 3 mM MgCl2, 3 mM MnCl2, 3 µM Na-orthovanadate, 2 mM DTT, 4% glycerol, 1 µM [γ-^33P]-ATP (approx. 6 x 10^5 cpm per well), protein kinase , and substrate. Table 1: Protein kinases inhibited with high potency in vitro by compound PQ-012, PQ-013, PQ-014, PQ-016, PQ-041, PQ-042.

For test [2], the target named is T2, PDGFR-alpha (Homo sapiens, UniProt P16234).
T2 construct: made in house; host or cells: Sf9 insect cells (baculovirus)
The method, then:
as §1

The target of test [3] is T3, FAK (Homo sapiens, UniProt Q05397).
T3 construct: made in house; host or cells: Sf9 insect cells (baculovirus)
The method, then:
as §1

For test [4], the target named is T4, FLT3 wt (Homo sapiens, UniProt P36888).
T4 construct: made in house; host or cells: Sf9 insect cells (baculovirus)
T4 sequence (P36888 27-993): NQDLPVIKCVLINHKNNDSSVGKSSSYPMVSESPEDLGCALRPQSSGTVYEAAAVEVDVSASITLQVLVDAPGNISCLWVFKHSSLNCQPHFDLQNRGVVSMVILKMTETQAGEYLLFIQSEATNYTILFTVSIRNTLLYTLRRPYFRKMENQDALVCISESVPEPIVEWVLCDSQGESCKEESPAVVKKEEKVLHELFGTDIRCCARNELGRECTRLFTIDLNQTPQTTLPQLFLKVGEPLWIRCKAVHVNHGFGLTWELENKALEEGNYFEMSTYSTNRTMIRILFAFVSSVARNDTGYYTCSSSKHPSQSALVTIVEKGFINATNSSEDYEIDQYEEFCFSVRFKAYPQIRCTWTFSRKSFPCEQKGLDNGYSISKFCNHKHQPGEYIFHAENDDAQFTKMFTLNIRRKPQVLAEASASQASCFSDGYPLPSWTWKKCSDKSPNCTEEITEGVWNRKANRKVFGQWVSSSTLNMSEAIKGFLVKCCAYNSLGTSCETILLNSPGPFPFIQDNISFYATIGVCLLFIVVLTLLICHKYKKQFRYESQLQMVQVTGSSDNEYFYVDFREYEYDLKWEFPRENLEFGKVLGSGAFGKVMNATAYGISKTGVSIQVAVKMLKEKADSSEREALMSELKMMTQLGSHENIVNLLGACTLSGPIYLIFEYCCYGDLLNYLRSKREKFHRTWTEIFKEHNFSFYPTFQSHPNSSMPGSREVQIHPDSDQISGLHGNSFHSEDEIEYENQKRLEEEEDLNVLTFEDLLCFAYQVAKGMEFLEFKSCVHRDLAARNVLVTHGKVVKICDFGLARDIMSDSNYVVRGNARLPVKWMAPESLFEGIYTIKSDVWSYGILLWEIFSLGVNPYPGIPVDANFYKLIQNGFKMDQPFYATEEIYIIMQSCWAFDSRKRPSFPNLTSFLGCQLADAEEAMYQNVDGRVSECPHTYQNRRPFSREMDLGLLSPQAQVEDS
The method, then: as §1

Test [5] concerns the target T5, FLT3 D835Y (Homo sapiens, UniProt P36888, D835Y).
T5 construct: made in house; host or cells: Sf9 insect cells (baculovirus)
T5 sequence (P36888 27-993 D835Y): T4 sequence (P36888 27-993) with D809Y
The method, then: as §1

Test [6] has as its target T6, CHK2 (Homo sapiens, UniProt O96017).
T6 construct: made in house; host or cells: Sf9 insect cells (baculovirus)
The method, then: as §1

T3 sequence (Q05397 whole entry): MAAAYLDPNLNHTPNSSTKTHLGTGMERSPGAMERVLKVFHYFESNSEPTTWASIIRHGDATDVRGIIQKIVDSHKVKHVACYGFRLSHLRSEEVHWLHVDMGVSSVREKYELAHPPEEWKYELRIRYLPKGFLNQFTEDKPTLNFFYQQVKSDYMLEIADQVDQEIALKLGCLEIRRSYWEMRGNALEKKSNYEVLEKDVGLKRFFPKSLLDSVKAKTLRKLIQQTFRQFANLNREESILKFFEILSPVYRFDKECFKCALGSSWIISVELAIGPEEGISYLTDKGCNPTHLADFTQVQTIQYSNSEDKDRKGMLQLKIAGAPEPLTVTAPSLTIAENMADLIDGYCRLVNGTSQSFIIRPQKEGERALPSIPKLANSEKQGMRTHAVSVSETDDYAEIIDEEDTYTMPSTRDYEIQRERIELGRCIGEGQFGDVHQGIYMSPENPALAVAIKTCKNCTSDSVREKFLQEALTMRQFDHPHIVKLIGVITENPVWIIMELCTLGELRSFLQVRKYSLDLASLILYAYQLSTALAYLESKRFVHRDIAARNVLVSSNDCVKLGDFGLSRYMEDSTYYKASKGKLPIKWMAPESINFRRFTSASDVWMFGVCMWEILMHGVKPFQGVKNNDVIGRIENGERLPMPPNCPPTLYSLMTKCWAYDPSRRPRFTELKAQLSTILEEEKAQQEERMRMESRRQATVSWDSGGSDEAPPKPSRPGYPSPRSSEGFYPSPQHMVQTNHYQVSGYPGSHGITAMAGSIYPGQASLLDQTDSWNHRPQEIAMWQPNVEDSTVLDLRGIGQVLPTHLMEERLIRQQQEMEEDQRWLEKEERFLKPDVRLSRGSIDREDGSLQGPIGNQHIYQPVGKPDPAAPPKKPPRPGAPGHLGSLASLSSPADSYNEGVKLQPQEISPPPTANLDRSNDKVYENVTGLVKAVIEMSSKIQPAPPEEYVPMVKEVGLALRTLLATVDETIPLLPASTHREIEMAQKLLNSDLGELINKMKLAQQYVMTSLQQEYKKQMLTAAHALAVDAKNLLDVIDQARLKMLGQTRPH
T1 sequence (P09619 33-1106): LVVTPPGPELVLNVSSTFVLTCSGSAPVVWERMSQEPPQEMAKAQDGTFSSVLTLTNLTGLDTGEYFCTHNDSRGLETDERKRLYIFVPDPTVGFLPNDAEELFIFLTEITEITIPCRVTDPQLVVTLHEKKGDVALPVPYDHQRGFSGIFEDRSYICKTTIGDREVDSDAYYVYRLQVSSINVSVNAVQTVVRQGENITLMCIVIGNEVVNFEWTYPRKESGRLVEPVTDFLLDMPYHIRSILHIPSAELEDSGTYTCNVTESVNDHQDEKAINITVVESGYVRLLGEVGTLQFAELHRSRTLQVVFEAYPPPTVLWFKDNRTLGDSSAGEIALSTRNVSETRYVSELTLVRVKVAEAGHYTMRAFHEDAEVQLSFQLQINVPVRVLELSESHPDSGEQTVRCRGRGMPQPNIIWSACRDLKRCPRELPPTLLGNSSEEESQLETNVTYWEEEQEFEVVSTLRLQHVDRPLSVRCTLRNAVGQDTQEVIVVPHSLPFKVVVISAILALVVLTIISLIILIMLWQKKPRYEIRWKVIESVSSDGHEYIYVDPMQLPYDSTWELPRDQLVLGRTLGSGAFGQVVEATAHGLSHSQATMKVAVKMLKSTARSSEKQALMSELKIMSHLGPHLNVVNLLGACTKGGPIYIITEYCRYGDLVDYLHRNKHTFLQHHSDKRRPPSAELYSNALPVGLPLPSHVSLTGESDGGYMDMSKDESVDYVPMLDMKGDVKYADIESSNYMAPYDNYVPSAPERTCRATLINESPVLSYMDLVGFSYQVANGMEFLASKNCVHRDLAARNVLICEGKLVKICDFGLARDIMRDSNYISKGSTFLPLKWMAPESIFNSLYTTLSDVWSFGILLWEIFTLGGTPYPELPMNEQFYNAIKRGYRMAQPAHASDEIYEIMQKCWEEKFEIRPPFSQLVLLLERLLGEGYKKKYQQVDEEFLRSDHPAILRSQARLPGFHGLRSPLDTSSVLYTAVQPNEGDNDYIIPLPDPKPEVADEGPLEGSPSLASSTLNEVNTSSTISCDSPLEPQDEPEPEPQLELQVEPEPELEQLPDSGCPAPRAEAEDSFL
T6 sequence (O96017 whole entry): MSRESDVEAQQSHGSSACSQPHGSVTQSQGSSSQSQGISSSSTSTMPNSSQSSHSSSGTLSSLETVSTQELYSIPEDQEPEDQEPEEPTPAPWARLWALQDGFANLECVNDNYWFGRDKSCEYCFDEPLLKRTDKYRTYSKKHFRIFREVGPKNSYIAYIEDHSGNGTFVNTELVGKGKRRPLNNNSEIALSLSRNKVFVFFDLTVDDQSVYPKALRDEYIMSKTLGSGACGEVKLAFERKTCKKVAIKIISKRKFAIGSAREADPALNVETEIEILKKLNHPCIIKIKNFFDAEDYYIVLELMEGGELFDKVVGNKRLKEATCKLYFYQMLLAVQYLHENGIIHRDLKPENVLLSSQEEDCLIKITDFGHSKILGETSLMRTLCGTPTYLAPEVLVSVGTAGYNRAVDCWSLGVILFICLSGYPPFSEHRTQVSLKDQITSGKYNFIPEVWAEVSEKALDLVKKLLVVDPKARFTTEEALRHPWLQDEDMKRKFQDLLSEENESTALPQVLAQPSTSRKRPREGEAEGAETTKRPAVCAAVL
T2 sequence (P16234 24-1089): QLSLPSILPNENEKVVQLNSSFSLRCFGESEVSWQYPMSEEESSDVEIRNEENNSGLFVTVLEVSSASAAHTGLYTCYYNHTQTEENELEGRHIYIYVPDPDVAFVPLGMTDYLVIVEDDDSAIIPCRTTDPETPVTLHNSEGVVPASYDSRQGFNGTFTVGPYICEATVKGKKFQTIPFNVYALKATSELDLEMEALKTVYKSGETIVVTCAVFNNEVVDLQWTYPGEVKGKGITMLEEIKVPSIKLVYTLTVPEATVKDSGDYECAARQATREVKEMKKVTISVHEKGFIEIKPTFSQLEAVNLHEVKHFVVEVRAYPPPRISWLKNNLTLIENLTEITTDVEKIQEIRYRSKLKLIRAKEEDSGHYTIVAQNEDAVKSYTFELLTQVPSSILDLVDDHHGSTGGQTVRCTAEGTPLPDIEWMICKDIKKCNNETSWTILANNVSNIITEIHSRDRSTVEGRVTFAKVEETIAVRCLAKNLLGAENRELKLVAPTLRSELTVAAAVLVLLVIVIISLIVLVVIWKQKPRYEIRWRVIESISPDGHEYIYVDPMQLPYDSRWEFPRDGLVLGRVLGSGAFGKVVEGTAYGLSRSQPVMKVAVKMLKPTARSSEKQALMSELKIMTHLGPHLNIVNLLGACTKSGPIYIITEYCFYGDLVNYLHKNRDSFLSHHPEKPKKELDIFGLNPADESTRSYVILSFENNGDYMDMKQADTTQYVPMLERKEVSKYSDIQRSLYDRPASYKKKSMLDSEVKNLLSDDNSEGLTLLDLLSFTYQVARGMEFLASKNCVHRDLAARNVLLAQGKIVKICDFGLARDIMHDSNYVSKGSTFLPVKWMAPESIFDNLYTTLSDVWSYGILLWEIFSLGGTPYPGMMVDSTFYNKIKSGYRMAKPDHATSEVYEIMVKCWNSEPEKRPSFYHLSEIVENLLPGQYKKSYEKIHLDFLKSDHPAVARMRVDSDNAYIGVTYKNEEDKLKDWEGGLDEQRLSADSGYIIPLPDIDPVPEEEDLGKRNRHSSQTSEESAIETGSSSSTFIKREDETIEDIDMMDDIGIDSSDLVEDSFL

By IC50 is commonly meant the concentration that gives 50% inhibition. In the case of `CN(C)CC(O)Cn1c2ccc(O)cc2c2c3c(c4c5cc(O)ccc5n(C)c4c21)C(=O)NC3=O` (racemic), the IC50 in test [1] stood at 700 nM; in test [2] it was 2000 nM; in test [3], 1000 nM; in test [4], 110 nM; in test [5] it was 64 nM; in test [6], 22000 nM.
`CN(C)CCCn1c2ccc(O)cc2c2c3c(c4c5cc(O)ccc5n(C)c4c21)C(=O)NC3=O` [PQ-012, 12-(3-Dimethylaminopropyl)-6,7,12,13-tetrahydro-3,9-dihydroxy-12-methyl-5,7 dioxo-5H-indolo[2,3-a] pyrrolo [3,4-c]-carbazole]: the IC50 is less than 3 nM in test [1]; less than 3 nM in test [2]; 14 nM in test [3]; less than 3 nM in test [4]; less than 3 nM in test [5]; 23 nM in test [6].
As for `COc1ccc2c(c1)c1c3c(c4c5ccccc5n(C)c4c1n2CCC#N)C(=O)NC3=O` [PQ-014, 13-(2-Cyanoethyl)-6,7,12,13-tetrahydro-3-methoxy-12-methyl-5,7 dioxo-5H-indolo[2,3-a] pyrrolo [3,4-c]-carbazole], the concentration for half-maximal inhibition (IC50) turned out to be 130 nM in test [1]; 110 nM in test [2]; 1200 nM in test [3]; 4.6 nM in test [4]; 3.5 nM in test [5]; 2100 nM in test [6].
Consider `NC(=O)CCn1c2ccccc2c2c3c(c4c5ccccc5[nH]c4c21)C(=O)NC3=O` [PQ-041, 12-(2-Carbamidoethyl)-6,7,12,13-tetrahydro-5,1 dioxo-5H-indolo[2,3-a] pyrrolo [3,4-c]-carbazole], for which the IC50 amounted to 150 nM in test [1]; 130 nM in test [2]; 2400 nM in test [3]; 5.6 nM in test [4]; 3.9 nM in test [5]; 740 nM in test [6].
For `Cn1c2ccccc2c2c3c(c4c5ccccc5[nH]c4c21)C(=O)NC3=O` [PQ-042, 6,7,12,13-Tetrahydro-12-methyl-5,7 dioxo-5H-indolo [2,3-a] pyrrolo [3,4-c]-carbazole], the 50% inhibitory concentration (IC50) in test [1] was more than 10000 nM; in test [2], more than 10000 nM; in test [3], more than 10000 nM; in test [4], 380 nM; in test [5], 68 nM; in test [6], more than 10000 nM.
